Experimental findings from ChEMBL document CHEMBL5365546, “The Potential of NOD-like Receptor Protein 3 Inflammasome Inhibitors in the Treatments of Diseases” (ACS Med Chem Lett, 2023) are described below.

The target in assay [1] is T1, NACHT, LRR and PYD domains-containing protein 3 (Homo sapiens, UniProt Q96P20). The assay is described as follows: Inhibition of NLRP3 in human PBMC assessed as reduction in LPS-induced TNF level preincubated for 30 mins followed by LPS-stimulation and measured after 6 hrs by MSD assay. Format: cell-based.
T1 sequence (Q96P20 whole entry, the tested form may be a part): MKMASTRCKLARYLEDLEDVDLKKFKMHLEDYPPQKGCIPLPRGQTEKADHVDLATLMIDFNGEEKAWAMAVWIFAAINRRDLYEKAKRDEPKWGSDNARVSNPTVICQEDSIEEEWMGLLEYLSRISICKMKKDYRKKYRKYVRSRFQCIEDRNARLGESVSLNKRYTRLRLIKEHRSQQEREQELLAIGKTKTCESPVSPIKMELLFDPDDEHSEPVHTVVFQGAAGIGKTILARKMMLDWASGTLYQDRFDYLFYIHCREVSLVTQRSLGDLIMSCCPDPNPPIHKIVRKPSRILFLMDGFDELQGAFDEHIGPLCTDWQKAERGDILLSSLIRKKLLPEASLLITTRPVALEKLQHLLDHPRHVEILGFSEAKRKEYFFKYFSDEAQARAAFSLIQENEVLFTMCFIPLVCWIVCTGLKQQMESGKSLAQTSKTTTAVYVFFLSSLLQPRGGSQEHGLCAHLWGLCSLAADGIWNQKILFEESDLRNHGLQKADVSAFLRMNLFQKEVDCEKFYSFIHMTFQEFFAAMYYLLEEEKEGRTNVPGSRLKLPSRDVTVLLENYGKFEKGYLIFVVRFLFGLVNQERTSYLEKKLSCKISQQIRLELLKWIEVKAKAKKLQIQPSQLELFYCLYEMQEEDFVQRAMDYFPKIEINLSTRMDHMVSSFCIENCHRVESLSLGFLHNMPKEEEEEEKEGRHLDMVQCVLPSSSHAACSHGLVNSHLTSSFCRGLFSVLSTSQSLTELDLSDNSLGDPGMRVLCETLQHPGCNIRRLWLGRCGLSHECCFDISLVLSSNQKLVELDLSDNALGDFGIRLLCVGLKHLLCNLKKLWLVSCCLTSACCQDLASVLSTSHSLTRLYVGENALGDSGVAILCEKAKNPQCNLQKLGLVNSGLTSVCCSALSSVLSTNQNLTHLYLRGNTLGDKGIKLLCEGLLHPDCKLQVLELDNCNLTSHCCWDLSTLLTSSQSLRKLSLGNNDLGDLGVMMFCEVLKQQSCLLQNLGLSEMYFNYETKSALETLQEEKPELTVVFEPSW
Assay [2] concerns the target T1, NACHT, LRR and PYD domains-containing protein 3. The assay is described as follows: Inhibition of NLRP3 in human PBMC assessed as reduction in LPS-induced IL-1beta level preincubated for 30 mins followed by LPS-stimulation and measured after 6 hrs by MSD assay. It counts as cell-based.

The structures appear in SMILES notation.

Broadly, the AC50 is the concentration at which the activity in the assay is half-maximal. Turning to `CC(C)c1nn(CC(=O)Nc2ccc3nncn3c2)c(=O)cc1N1CC[C@@H]2C[C@@H]2C1`, the AC50 was above 20 µM in assay [1] and 0.5 µM in assay [2].
Taken in the same sequence, the figures for `CC(C)c1nn(CC(=O)Nc2ccc3nncn3c2)c(=O)cc1N1CCCC1Cc1ccccn1` (stereo not given) were above 20 µM and 1.28 µM.
For `CC(C)c1nn(CC(=O)Nc2ccc3nncn3c2)c(=O)cc1N1C2CCC1CC2`, in that order: above 10 µM and 1.02 µM.
As to `CC(C)c1nn(CC(=O)Nc2ccc3nncn3c2)c(=O)cc1Nc1ccccc1`, the concentration at half-maximal activity (AC50) was above 10 µM in assay [1] and above 15 µM in assay [2].
Taken in the same sequence, the figures for `CC(C)c1nn(CC(=O)Nc2ccc3nncn3c2)c(=O)cc1NCC1CC1` were above 10 µM and 1.53 µM.
For `CC(C)c1nn(CC(=O)Nc2ccc3nncn3c2)c(=O)cc1N1CC[C@@H](F)C1`, in that order: above 10 µM and 0.53 µM.
On to `CC(C)c1nn(CC(=O)Nc2ccc3nncn3c2)c(=O)cc1N1CC[C@H](C)C1`, for which the values for the AC50 in assay [1] and in assay [2] were above 20 µM and 0.42 µM, respectively.
Taken in the same sequence, the figures for `CC(C)c1nn(CC(=O)Nc2ccc3nncn3c2)c(=O)cc1N1CCCCC1` were above 20 µM and 1.23 µM.
As to `CC(C)c1nn(CC(=O)Nc2ccc3nncn3c2)c(=O)cc1N1CCCC1`, the concentration at half-maximal activity (AC50) in assay [1] was above 10 µM; in assay [2] it was 0.33 µM.
Taken in the same sequence, the figures for `CC(C)c1nn(CC(=O)Nc2ccc3nncn3c2)c(=O)cc1N1CC2CC2C1` (stereo not given) were above 10 µM and 0.09 µM.
